# Assay results: patent US20210100777A1, “HEAT SHOCK PROTEIN (HSP) INHIBITION AND MONITORING EFFECTIVENESS THEREOF” (H. LEE MOFFITT CANCER CENTER AND RESEARCH INSTITUTE, INC., priority 2013, published 2021)
# Experiments:
# [1] = tested on: BIM, Mcl-1 and BMF mRNA in vemurafenib-resistant melanoma cell lines; experiment: Quantitative real-time PCR; conditions: M229R; 3 μM, 48 hours
# RPMI 7951 = experiment: Growth inhibition, MTT assay; assay type: cell-based; conditions: Homo sapiens, RPMI 7951 (overexpression of COT), 72 hours
# Procedure: (§1) Growth inhibition. Cells were plated at a density of 2.5×10^4 cells per ml and left to grow overnight before being treated with increasing concentrations of vemurafenib or XL888. After 72 hours, the levels of growth inhibition were examined using the MTT assay (Smalley et al., Br. J. Cancer 96:445-9 (2007)). […] Vemurafenib and XL888 were dissolved in 100% DMSO and stored at −20° C. as a 10 mM solution.
# (§2) Statistical analysis of GI50 values. Triplicate experiments were performed for each cell line under each drug treatment. To estimate the IC50 values for each cell line for each treatment, a 4-parameter Hill equation was used to model the nonlinear sigmoid relationship between the drug concentration and % cell survival. Briefly,
# (§3) where x is the drug concentration, y is the % survival, ε is the error term. The four parameters in the model to estimate are: 1) the control-level effect (E); 2) the background-level effect (B); 3) the median effect concentration (GI50); and 4) the strength of the inhibition (m). The constraint of non-negative minimum background effect (B) is imposed so the model is biologically meaningful. Levenberg-Marquardt algorithm for nonlinear least squares was used to fit the model and estimate all four parameters for each cell line under each treatment. Estimated concentration at 50% cell survival, i.e., IC50, is estimated using the plugged-in parameters after model fitting. Note that when the control and background effects are 100% and 0%, respectively, the estimated GI50 and IC50 values would be identical. To compare the estimated IC50 values between the resistance and naïve paired of cell lines, after log transformation, a paired t-test was performed for each drug.
# WM39 = experiment: Growth inhibition, MTT assay; assay type: cell-based; conditions: WM39 (amplification of cyclin D1), 72 hours
# Procedure: as §1, §2, §3
# [2] = tested on: matched pairs of vemurafenib naïve and resistant melanoma cell lines and melanoma cell lines with intrinsic resistance; experiment: Growth inhibition, MTT assay; assay type: cell-based; conditions: M229/M229R, M249/M249R, WM164/WM164R, 1205Lu/1205LuR; paired t-test
# Procedure: as §1, §2, §3
Compound,BMF expression [1],IC50 (RPMI 7951) [nM],IC50 (WM39) [nM],difference in growth inhibition / IC50 between naïve and resistant pairs of cell lines [2]
Cn1cnc2c(F)c(Nc3ccc(Br)cc3Cl)c(C(=O)NOCCO)cc21 [MEK inhibitor],robust induction of BMF expression,–,–,–
"CCCS(=O)(=O)Nc1ccc(F)c(C(=O)c2c[nH]c3ncc(-c4ccc(Cl)cc4)cc23)c1F [vemurafenib, N-(3-{[5-(4-chlorophenyl)-1H-pyrrolo[2,3-b]pyridin-3-yl]carbonyl}-2,4-difluorophenyl)propane-1-sulfonamide]",–,> 3000,> 3000,statistically significant difference in the extent of growth inhibition
